Results published in paper PMC10126264, “Synergistic effect and antibiofilm activity of the antimicrobial peptide K11 with conventional antibiotics against multidrug-resistant and extensively drug-resistant Klebsiella pneumoniae” (Frontiers in Cellular and Infection Microbiology, 2023).
Values after ≈ are worked out from the molar mass of the structure shown. Where two headings read alike, the source gives them in different places. Residues, ends and D or L forms follow the SMILES beside them.

Columns and labels:
[1] = system: K. pneumoniae ATCC BAA-1706
Procedure: The effects of various cations and serum on the antimicrobial activity of K11 were investigated against K. pneumoniae ATCC 70063 and K. pneumoniae ATCC BAA-1706 by the MIC assay, as described above. For salt stability, 2 mg/mL of K11 was dissolved in solutions containing different salts at their physiological concentrations; NaCl (100, 150, and 200 mM), MgCl2 (0.5, 1 and 2 mM), and FeCl3 (1, 4, and 8 mM), then incubated for 1 h at 37°C. Subsequently, serially 2-fold diluted K11 solutions were prepared in CAMHB, and aliquots of each peptide solution were added to a 96-well plate. An equal volume of bacterial suspension was added, and the mixtures were incubated at 37°C for 20-24 h ([Ko et al., 2019]). […] The antimicrobial activity was determined by measuring the MICs.

[2] = murine excision model; ref Rishi et al., 2018; cited from earlier work
Excerpt: The pH and thermal stability of AMPs are essential for their preparation, processing, and storage ([Zong et al., 2016]). At the same time, the stability of AMPs in serum and under physiological salt conditions is also crucial when administrating AMPs in vivo ([Rodríguez et al., 2021]).

[3] = system: K. pneumoniae ATCC BAA-1706; remark: listed apart in the source
Procedure: The ability of K11 to inhibit bacterial growth was determined by the broth microdilution method ([Clinical and Laboratory Standards Institute, 2018]). Briefly, a series of 2-fold dilutions of K11 were prepared from 1,024 to 2 µg/mL in cation-adjusted Mueller-Hinton broth (CAMHB), Then 50 µL of each peptide dilution was added to each well of polystyrene 96-well U-bottom microplates. The log-phase cultures were adjusted to 0.5 McFarland standard and diluted 1:100 in CAMHB to provide the density of 10^6 CFU/mL. Consequently, 50 µL of diluted bacterial suspension was added to wells containing 50 µL of peptide solution, followed by incubation for 20-24 h at 37°C. […] To evaluate MBC, a volume of 10 μL was taken from each well with no visible growth, inoculated on Mueller-Hinton agar (MHA) plates, and incubated at 37°C. The MBC was defined as the lowest concentration of antimicrobials that killed at least 99.9% of the initial inoculums ([Clinical and Laboratory Standards Institute, 1999]).

[4] = system: K. pneumoniae ATCC BAA-1706; remark: listed apart in the source
Procedure: (§1) The temperature and pH stabilities of K11 were evaluated by the MIC assay, as mentioned above. To assess the thermal stability, Aliquots of 2 mg/mL of K11 in sterile deionized water were incubated for 1 h at 25°C, 37°C, 50°C, 70°C, and 90°C. Then, a series of 2-fold dilutions of K11 were prepared in CAMHB, 50 µL of each peptide solution was transferred to the well of a 96-well microplate. An equal volume of K. pneumoniae ATCC 70063 or K. pneumoniae ATCC BAA-1706 (10^6 CFU/mL) suspension was added, and the mixture was incubated at 37°C for 20-24 h ([Li et al., 2021]). To examine the pH stability, the pH was adjusted to range from 2.0 to 10.0 with the following 100 mM buffers: glycine-HCl buffer (pH 2.0), sodium acetate buffer (pH 4.0), sodium phosphate buffer (pH 6.0), Tris-HCl buffer (pH 8.0), and glycine-NaOH buffer (pH 10.0). Then, 2 mg/mL of K11 was prepared in buffers with different pH values (pH 2.0-10.0) and incubated for 1 h at 37°C. Afterward, the pH of the reaction solution was neutralized by HCl or NaOH to terminate the reaction. The serially diluted peptide solutions were conducted, then treated against the tested strains, and the mixtures were incubated at 37°C for 20-24 h ([Cao et al., 2015]; [Zong et al., 2016]). The MICs were observed.

K. pneumoniae ATCC 70063 = system: K. pneumoniae ATCC 70063
Procedure: as §1

[5] = K11 2 mg/mL in 100 mM Tris-HCl buffer pH 8.0, 1 h at 37°C, neutralized, then MIC
[6] = K11 2 mg/mL in 100 mM glycine-HCl buffer pH 2.0, 1 h at 37°C, neutralized, then MIC
[7] = K11 2 mg/mL in 100 mM glycine-NaOH buffer pH 10.0, 1 h at 37°C, neutralized, then MIC
[8] = K11 2 mg/mL in 100 mM sodium acetate buffer pH 4.0, 1 h at 37°C, neutralized, then MIC
[9] = K11 2 mg/mL in 100 mM sodium phosphate buffer pH 6.0, 1 h at 37°C, neutralized, then MIC
[10] = K11 2 mg/mL in sterile deionized water incubated 1 h at 25°C (control), then MIC in CAMHB
[11] = K11 2 mg/mL in sterile deionized water incubated 1 h at 37°C, then MIC in CAMHB
[12] = K11 2 mg/mL in sterile deionized water incubated 1 h at 50°C, then MIC in CAMHB
[13] = K11 2 mg/mL in sterile deionized water incubated 1 h at 70°C, then MIC in CAMHB
[14] = K11 2 mg/mL in sterile deionized water incubated 1 h at 90°C, then MIC in CAMHB

For `CC[C@H](C)[C@H](NC(=O)[C@H](Cc1ccccc1)NC(=O)[C@H](CO)NC(=O)[C@H](CCCCN)NC(=O)[C@H](Cc1c[nH]c2ccccc12)NC(=O)[C@@H](N)CCCCN)C(=O)N[C@@H](CCCCN)C(=O)N[C@@H](CCCCN)C(=O)N[C@@H](CC(C)C)C(=O)N[C@H](C(=O)N[C@@H](CCCCN)C(=O)N[C@@H](CCCCN)C(=O)N[C@@H](Cc1ccccc1)C(=O)N[C@@H](CC(C)C)C(=O)N[C@@H](Cc1c[nH]cn1)C(=O)N[C@@H](CO)C(=O)N[C@@H](C)C(=O)N[C@@H](CCCCN)C(=O)N[C@@H](CCCCN)C(=O)N[C@@H](Cc1ccccc1)C(N)=O)[C@@H](C)O` [K11] (H-KWKSFIKKLTKKFLHSAKKF-NH2), the “Antimicrobial activity MIC” value ([1]; Control, salt concentration 0) was 2 µg/mL, the “Antimicrobial activity MIC” value ([1]; K11 2 mg/mL in FeCl3 1 µM, 1 h at 37°C, then MIC in CAMHB) was 2 µg/mL and the “Antimicrobial activity MIC” value ([1]; K11 2 mg/mL in FeCl3 4 µM, 1 h at 37°C, then MIC in CAMHB) was 2 µg/mL. The “Antimicrobial activity MIC” value ([1]; K11 2 mg/mL in FeCl3 8 µM, 1 h at 37°C, then MIC in CAMHB) was 2 µg/mL, the “Antimicrobial activity MIC” value ([1]; K11 2 mg/mL in MgCl2 0.5 mM, 1 h at 37°C, then MIC in CAMHB) was 2 µg/mL and the “Antimicrobial activity MIC” value ([1]; K11 2 mg/mL in MgCl2 1 mM, 1 h at 37°C, then MIC in CAMHB) was 2 µg/mL. For the same molecule, the “Antimicrobial activity MIC” value ([1]; K11 2 mg/mL in MgCl2 2 mM, 1 h at 37°C, then MIC in CAMHB) was 2 µg/mL, the “Antimicrobial activity MIC” value ([1]; K11 2 mg/mL in NaCl 100 mM, 1 h at 37°C, then MIC in CAMHB) was 2 µg/mL and the “Antimicrobial activity MIC” value ([1]; K11 2 mg/mL in NaCl 150mM, 1 h at 37°C, then MIC in CAMHB) was 4 µg/mL. The “Antimicrobial activity MIC” value ([1]; K11 2 mg/mL in NaCl 200 mM, 1 h at 37°C, then MIC in CAMHB) was 4 µg/mL, the cytotoxicity [2] was “no cytotoxicity” and the MIC ([3]; broth microdilution in CAMHB, 20-24 h at 37°C) was 2 µg/mL (≈ 0.802 µM). For the same molecule, the MBC ([3]; wells with no visible growth plated on MHA, 37°C, kills at least 99.9% of inoculum) was 2 µg/mL (≈ 0.802 µM), the “Antimicrobial activity MIC” value [4, 5] was 2 µg/mL and the “Antimicrobial activity MIC” value [4, 6] was 2 µg/mL. The “Antimicrobial activity MIC” value [4, 7] was 2 µg/mL, the “Antimicrobial activity MIC” value [4, 8] was 2 µg/mL and the “Antimicrobial activity MIC” value [4, 9] was 2 µg/mL. For the same molecule, the “Antimicrobial activity MIC” value [4, 10] was 2 µg/mL, the “Antimicrobial activity MIC” value [4, 11] was 2 µg/mL and the “Antimicrobial activity MIC” value [4, 12] was 2 µg/mL. For the same molecule, the “Antimicrobial activity MIC” value [4, 13] was 2 µg/mL, the “Antimicrobial activity MIC” value [4, 14] was 2 µg/mL and the “Antimicrobial activity MIC” value ([4]; pH 7 (control)) was 2 µg/mL. For the same molecule, the “Antimicrobial activity MIC” value (K. pneumoniae ATCC 70063; [5]) was 4 µg/mL, the “Antimicrobial activity MIC” value (K. pneumoniae ATCC 70063; [6]) was 4 µg/mL and the “Antimicrobial activity MIC” value (K. pneumoniae ATCC 70063; [7]) was 4 µg/mL. The “Antimicrobial activity MIC” value (K. pneumoniae ATCC 70063; [8]) was 4 µg/mL, the “Antimicrobial activity MIC” value (K. pneumoniae ATCC 70063; [9]) was 4 µg/mL and the “Antimicrobial activity MIC” value (K. pneumoniae ATCC 70063; [10]) was 4 µg/mL. For the same molecule, the “Antimicrobial activity MIC” value (K. pneumoniae ATCC 70063; [11]) was 4 µg/mL, the “Antimicrobial activity MIC” value (K. pneumoniae ATCC 70063; [12]) was 4 µg/mL and the “Antimicrobial activity MIC” value (K. pneumoniae ATCC 70063; [13]) was 4 µg/mL. The “Antimicrobial activity MIC” value (K. pneumoniae ATCC 70063; [14]) was 4 µg/mL and the “Antimicrobial activity MIC” value (K. pneumoniae ATCC 70063; pH 7 (control)) was 4 µg/mL.
